According to ChEMBL document CHEMBL1201862, “PubChem BioAssay data set” (2004):
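Test compounds were applied to cells in 96-well plates for 48 hours at 5 doses. Here, GI50 denotes the concentration required for 50% inhibition of growth.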 Calls of active or inactive are those of the source. No stated cut-off is given here; in the data, active = GI50 up to about 1.1 µM and inactive = higher.

Key:
Test in all cases: inhibition of tumour cell growth, NCI panel, 48 h
[1] = system: 786-0
[2] = system: CCRF-CEM
[3] = system: RXF 393
[4] = system: K562
[5] = system: T47D
[6] = system: EKVX
[7] = system: HT-29
[8] = system: KM12
[9] = system: A549
[10] = system: OVCAR-5
[11] = system: SK-MEL-2
[12] = system: SF-539
[13] = system: SF-295
[14] = system: NCI-H460
[15] = system: SNB-19
[16] = system: TK-10
[17] = system: DU-145
[18] = system: LOX IMVI
[19] = system: UO-31
[20] = system: NCI-H226

Row | Compound | GI50 [1] | GI50 [2] | GI50 [3] | GI50 [4] | GI50 [5] | GI50 [6] | GI50 [7] | GI50 [8] | GI50 [9] | GI50 [10] | GI50 [11] | GI50 [12] | GI50 [13] | GI50 [14] | GI50 [15] | GI50 [16] | GI50 [17] | GI50 [18] | GI50 [19] | GI50 [20]
1 | CC(=O)c1ccc(NCN2C(=O)c3ccccc3C2=O)cc1 | > 100 µM (inactive) | > 100 µM (inactive) | > 100 µM (inactive) | > 100 µM (inactive) | > 100 µM (inactive) | > 100 µM (inactive) | > 100 µM (inactive) | > 100 µM (inactive) | > 100 µM (inactive) | > 100 µM (inactive) | > 100 µM (inactive) | > 100 µM (inactive) | > 100 µM (inactive) | > 100 µM (inactive) | > 100 µM (inactive) | > 100 µM (inactive) | > 100 µM (inactive) | > 100 µM (inactive) | > 100 µM (inactive) | –
2 | COc1cc2c(cc1OC)C1C(O)C(OC)C(Br)C3(Br)CCN(C2)C13 (configuration not stated) | > 100 µM (inactive) | > 100 µM (inactive) | 18.5 µM (inactive) | – | 84.1 µM (inactive) | > 100 µM (inactive) | > 100 µM (inactive) | 94.8 µM (inactive) | > 100 µM (inactive) | > 100 µM (inactive) | > 100 µM (inactive) | > 100 µM (inactive) | > 100 µM (inactive) | 56.6 µM (inactive) | 46.2 µM (inactive) | > 100 µM (inactive) | > 100 µM (inactive) | – | > 100 µM (inactive) | > 100 µM (inactive)
3 | COc1ccc2nc3c([N+](=O)[O-])ccc4c3c(c2c1)N=CN4CCCN(C)C | 0.614 µM (active) | 0.807 µM (active) | – | 0.488 µM (active) | 11.5 µM (inactive) | 1.64 µM (inactive) | 0.57 µM (active) | 1.24 µM (inactive) | 0.716 µM (active) | 10.2 µM (inactive) | 7.71 µM (inactive) | 0.944 µM (active) | 2.55 µM (inactive) | 0.773 µM (active) | 4.74 µM (inactive) | 1.45 µM (inactive) | 2.52 µM (inactive) | 2.01 µM (inactive) | 2.38 µM (inactive) | 7.18 µM (inactive)
4 | Cc1nc2ccccc2n1Cc1nnc2n1N=C(c1ccccc1)CS2 | 44 µM (inactive) | 27.9 µM (inactive) | – | – | 10.6 µM (inactive) | 34.3 µM (inactive) | 30.5 µM (inactive) | 31.2 µM (inactive) | 36.2 µM (inactive) | 53.3 µM (inactive) | 17 µM (inactive) | 12.5 µM (inactive) | 43.1 µM (inactive) | 33.5 µM (inactive) | 32.1 µM (inactive) | 40.1 µM (inactive) | 37.5 µM (inactive) | – | 38.2 µM (inactive) | > 100 µM (inactive)
5 | COc1ccc2cc(C(=O)NCCCNC(=O)c3ccc4c(OC)c(OC)ccc4c3)ccc2c1OC | > 100 µM (inactive) | > 100 µM (inactive) | > 100 µM (inactive) | > 100 µM (inactive) | > 100 µM (inactive) | > 100 µM (inactive) | > 100 µM (inactive) | > 100 µM (inactive) | > 100 µM (inactive) | > 100 µM (inactive) | > 100 µM (inactive) | – | > 100 µM (inactive) | > 100 µM (inactive) | > 100 µM (inactive) | – | > 100 µM (inactive) | > 100 µM (inactive) | > 100 µM (inactive) | –
6 | CN1C(C)(C)CC(=O)C(Br)C1(C)C (configuration not stated) | > 100 µM (inactive) | > 100 µM (inactive) | – | > 100 µM (inactive) | > 100 µM (inactive) | > 100 µM (inactive) | > 100 µM (inactive) | > 100 µM (inactive) | > 100 µM (inactive) | > 100 µM (inactive) | > 100 µM (inactive) | – | > 100 µM (inactive) | > 100 µM (inactive) | > 100 µM (inactive) | > 100 µM (inactive) | > 100 µM (inactive) | > 100 µM (inactive) | > 100 µM (inactive) | > 100 µM (inactive)
7 | c1cc2c(s1)-c1sccc1C21OCCO1 | > 100 µM (inactive) | > 100 µM (inactive) | – | > 100 µM (inactive) | 17.3 µM (inactive) | > 100 µM (inactive) | 97.7 µM (inactive) | > 100 µM (inactive) | 69 µM (inactive) | > 100 µM (inactive) | 60 µM (inactive) | > 100 µM (inactive) | > 100 µM (inactive) | > 100 µM (inactive) | > 100 µM (inactive) | > 100 µM (inactive) | > 100 µM (inactive) | > 100 µM (inactive) | > 100 µM (inactive) | > 100 µM (inactive)
